Measured values from US10118930B2, “Piperidinylpyrazolopyrimidinones and their use” (BAYER PHARMA AKTIENGESELLSCHAFT, priority 2015, dated 2018).
Counter-ions that a name gives are not always drawn.

These compounds were tested on clot lysis (fibrinolysis) in diluted human citrated plasma, tPA-induced (assay: Plasma-based clot lysis assay (5%)). Conditions: human citrated platelet-poor plasma 5%, fibrinogen 3 μM, CaCl2 10 mM, tPA 0.2 nM, 37° C., OD at 405 nm.
Type: biochemical
How it was run: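 Compounds added to 5% platelet-poor citrated human plasma with 3 μM fibrinogen in 20 mM HEPES, 150 mM NaCl, 0.01% Brij, pH 7. Clotting and lysis started with 10 mM CaCl2 and 0.2 nM tPA at 37° C. IC50 derived by comparing time courses with a blank control reaction.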
`O=C(N=S1(=O)CCOCC1)c1cnn2c(C3CCNCC3)cc(=O)[nH]c12` [Example 37, N-(4-Oxido-1,4-lambda^4-oxathian-4-ylidene)-5-oxo-7-(piperidin-4-yl)-4,5-dihydropyrazolo[1,5-a]pyrimidine-3-carboxamide hydrochloride] was tested, and the IC50 was 29 nM.
In the case of `C[C@@H]1CCN(C(=O)c2cnn3c(C4CCNCC4)cc(=O)[nH]c23)C1` [Example 321, 3-{[(3R)-3-methylpyrrolidin-1-yl]carbonyl}-7-(piperidin-4-yl)pyrazolo[1,5-a]pyrimidin-5(4H)-one hydrochloride], the IC50 is reported as 82 nM.
`Cc1ccccc1-c1noc(-c2c(C)nn3c(C4CCNCC4)cc(=O)[nH]c23)n1` [Example 440, 2-methyl-3-[3-(2-methylphenyl)-1,2,4-oxadiazol-5-yl]-7-(piperidin-4-yl)pyrazolo[1,5-a]pyrimidin-5(4H)-one hydrochloride] showed an IC50 of 23 nM.
`O=C(OCC(F)F)c1cnn2c(C3CCNCC3)cc(=O)[nH]c12` [Example 353, 2,2-difluoroethyl 5-oxo-7-(piperidin-4-yl)-4,5-dihydropyrazolo[1,5-a]pyrimidine-3-carboxylate hydrochloride] showed an IC50 of 28 nM.
`O=c1cc(C2CCNCC2)n2ncc(-c3nc(-c4c(Cl)cc(C(F)(F)F)cc4Cl)no3)c2[nH]1` [Example 150, 3-{3-[2,6-Dichloro-4-(trifluoromethyl)phenyl]-1,2,4-oxadiazol-5-yl}-7-(piperidin-4-yl)pyrazolo[1,5-a]pyrimidin-5(4H)-one hydrochloride] was tested, and the IC50 was 45 nM.
With `COc1c(F)cc(Cc2nnc(-c3cnn4c(C5CCNCC5)cc(=O)[nH]c34)o2)cc1F` [Example 444, 3-[5-(3,5-difluoro-4-methoxybenzyl)-1,3,4-oxadiazol-2-yl]-7-(piperidin-4-yl)pyrazolo[1,5-a]pyrimidin-5(4H)-one hydrochloride] the IC50 was 17 nM.
Compound `O=c1cc(C2CCNCC2)n2ncc(-c3nc(Cc4ccc(F)cc4)no3)c2[nH]1` [Example 224, 3-[3-(4-fluorobenzyl)-1,2,4-oxadiazol-5-yl]-7-(piperidin-4-yl)pyrazolo[1,5-a]pyrimidin-5(4H)-one hydrochloride] has an IC50 of 9.7 nM.
For `O=C(O)c1cnn2c(C3CCNCC3)cc(=O)[nH]c12` [Example 17, 5-Oxo-7-(piperidin-4-yl)-4,5-dihydropyrazolo[1,5-a]pyrimidine-3-carboxylic acid hydrochloride], the IC50 was 46 nM.
For `COCCCc1nc(-c2cnn3c(C4CCNCC4)cc(=O)[nH]c23)no1` [Example 395, 3-(5-(3-methoxypropyl)-1,2,4-oxadiazol-3-yl)-7-(piperidin-4-yl)pyrazolo[1,5-a]pyrimidin-5(4H)-one hydrochloride], the IC50 was 27 nM.
`CN(CC1CC1)C(=O)c1cnn2c(C3CCNCC3)cc(=O)[nH]c12` [Example 78, N-(cyclopropylmethyl)-N-methyl-5-oxo-7-(piperidin-4-yl)-4,5-dihydropyrazolo[1,5-a]pyrimidine-3-carboxamide] was tested, and the IC50 was 48 nM.
`CC1(C)CN(Cc2cnn3c(C4CCNCC4)cc(=O)[nH]c23)CCO1` [Example 330, 3-[(2,2-dimethylmorpholin-4-yl)methyl]-7-(piperidin-4-yl)pyrazolo[1,5-a]pyrimidin-5(4H)-one hydrochloride] was tested, and the IC50 was 110 nM.
Compound `O=c1cc(C2CCNCC2)n2ncc(-c3nnc(C4CCCC4)o3)c2[nH]1` [Example 177, 3-(5-cyclopentyl-1,3,4-oxadiazol-2-yl)-7-(piperidin-4-yl)pyrazolo[1,5-a]pyrimidin-5(4H)-one hydrochloride] has an IC50 of 40 nM.
Work on `O=c1cc(C2CCNCC2)n2ncc(-c3nc(-c4ccc(Cl)cc4)no3)c2[nH]1` [Example 157, 3-[3-(4-chlorophenyl)-1,2,4-oxadiazol-5-yl]-7-(piperidin-4-yl)pyrazolo[1,5-a]pyrimidin-5 (4H)-one hydrochloride] yielded an IC50 of 56 nM.
With `CCOC(=O)c1cnn2c(C3CCNCC3)cc(=O)[nH]c12` [Example 16, Ethyl 5-oxo-7-(piperidin-4-yl)-4,5-dihydropyrazolo[1,5-a]pyrimidine-3-carboxylate hydrochloride] the IC50 was 11 nM.
`Cn1cncc1-c1nnc(-c2cnn3c(C4CCNCC4)cc(=O)[nH]c23)o1` [Example 168, 3-[5-(1-methyl-1H-imidazol-5-yl)-1,3,4-oxadiazol-2-yl]-7-(piperidin-4-yl)pyrazolo[1,5-a]pyrimidin-5(4H)-one hydrochloride] was tested, and the IC50 was 33 nM.
`O=c1cc(C2CCNCC2)n2ncc(S(=O)(=O)c3ccc(Cl)cc3Cl)c2[nH]1` [Example 74, 3-[(2,4-Dichlorophenyl)sulfonyl]-7-(piperidin-4-yl)pyrazolo[1,5-a]pyrimidin-5(4H)-one hydrochloride] was tested, and the IC50 was 18 nM.
Work on `Cc1nn2c(C3CCNCC3)cc(=O)[nH]c2c1C(=O)N(C)C1CCC1` [Example 401, N-cyclobutyl-N,2-dimethyl-5-oxo-7-(piperidin-4-yl)-4,5-dihydro-pyrazolo[1,5-a] pyrimidine-3-carboxamide hydrochloride] yielded an IC50 of 34 nM.
With `CCN(Cc1ccccc1)C(=O)c1c(C)nn2c(C3CCNCC3)cc(=O)[nH]c12` [Example 423, N-benzyl-N-ethyl-2-methyl-5-oxo-7-(piperidin-4-yl)-4,5-dihydro-pyrazolo[1,5-a] pyrimidine-3-carboxamide hydrochloride] the IC50 was 33 nM.
`O=c1cc(C2CCNCC2)n2ncc(-c3nnc(C4CCC4)o3)c2[nH]1` [Example 294, 3-(5-cyclobutyl-1,3,4-oxadiazol-2-yl)-7-(piperidin-4-yl)pyrazolo[1,5-a]pyrimidin-5 (4H)-one hydrochloride] was tested, and the IC50 was 37 nM.
In the case of `O=c1cc(C2CCNCC2)n2ncc(-c3nnc(O)o3)c2[nH]1` [Example 286, 3-(5-hydroxy-1,3,4-oxadiazol-2-yl)-7-(piperidin-4-yl)pyrazolo[1,5-a]pyrimidin-5(4H)-one hydrochloride], the IC50 is reported as 33 nM.
`CC(C)CNC(=O)c1c(-c2ccccc2)nn2c(C3CCNCC3)cc(=O)[nH]c12` [Example 44, trifluoroacetate] was tested, and the IC50 was 23 nM.
For `COc1cc(-c2noc(-c3cnn4c(C5CCNCC5)cc(=O)[nH]c34)n2)ccc1C` [Example 116, 3-[3-(3-Methoxy-4-methylphenyl)-1,2,4-oxadiazol-5-yl]-7-(piperidin-4-yl)pyrazolo[1,5-a]pyrimidin-5(4H)-one hydrochloride], the IC50 was 39 nM.
`COC(=O)c1ccc(-c2noc(-c3cnn4c(C5CCNCC5)cc(=O)[nH]c34)n2)cc1` [Example 204, Methyl 4-{5-[5-oxo-7-(piperidin-4-yl)-4,5-dihydropyrazolo[1,5-a]pyrimidin-3-yl]-1,2,4-oxadiazol-3-yl}benzoate hydrochloride] gave an IC50 of 35 nM.
With `Cc1nn2c(C3CCNCC3)cc(=O)[nH]c2c1C(=O)N1CCc2ccccc21` [Example 412, 3-(2,3-dihydro-1H-indol-1-ylcarbonyl)-2-methyl-7-(piperidin-4-yl) pyrazolo[1,5-a] pyrimidin-5(4H)-one hydrochloride] the IC50 was 33 nM.
Work on `Cc1nn2c(C3CCNCC3)cc(=O)[nH]c2c1C(=O)OCC(C)(F)F` [Example 461, 2,2-difluoropropyl 2-methyl-5-oxo-7-(piperidin-4-yl)-4,5-dihydropyrazolo[1,5-a]pyrimidine-3-carboxylate hydrochloride] yielded an IC50 of 61 nM.
In the case of `CC(C)Cc1nc(-c2cnn3c(C4CCNCC4)cc(=O)[nH]c23)no1` [Example 378, 3-(5-Isobutyl-1,2,4-oxadiazol-3-yl)-7-(piperidin-4-yl)pyrazolo[1,5-a]pyrimidin-5(4H)-one hydrochloride], the IC50 is reported as 32 nM.
In the case of `Cc1nn2c(C3CCNCC3)cc(=O)[nH]c2c1C(=O)N(C)Cc1ccccc1` [Example 436, N-benzyl-N,2-dimethyl-5-oxo-7-(piperidin-4-yl)-4,5-dihydro-pyrazolo[1,5-a] pyrimidine-3-carboxamide hydrochloride], the IC50 is reported as 39 nM.
Compound `CC(C)(c1ccc(F)cc1)c1noc(-c2cnn3c(C4CCNCC4)cc(=O)[nH]c23)n1` [Example 255, 3-{3-[2-(4-fluorophenyl)propan-2-yl]-1,2,4-oxadiazol-5-yl}-7-(piperidin-4-yl)pyrazolo[1,5-a]pyrimidin-5(4H)-one hydrochloride] has an IC50 of 17 nM.
In the case of `O=c1cc(C2CCNCC2)n2ncc(-c3nc(-c4ccc(F)s4)no3)c2[nH]1` [Example 109, 3-[3-(5-fluorothiophen-2-yl)-1,2,4-oxadiazol-5-yl]-7-(piperidin-4-yl)pyrazolo[1,5-a]pyrimidin-5(4H)-one], the IC50 is reported as 120 nM.
For `Cc1nc(-c2ccccc2)sc1-c1cnn2c(C3CCNCC3)cc(=O)[nH]c12` [Example 187, 3-(4-methyl-2-phenyl-1,3-thiazol-5-yl)-7-(piperidin-4-yl)pyrazolo[1,5-a]pyrimidin-5(4H)-one hydrochloride], the IC50 was 35 nM.
In the case of `O=c1cc(C2CCNCC2)n2ncc(-c3nnc(-c4cccs4)o3)c2[nH]1` [Example 288, 7-(piperidin-4-yl)-3-[5-(thiophen-2-yl)-1,3,4-oxadiazol-2-yl]pyrazolo[1,5-a]pyrimidin-5 (4H)-one hydrochloride], the IC50 is reported as 27 nM.
Compound `O=c1cc(C2CCNCC2)n2ncc(-c3nnc(C4(c5ccc(Cl)cc5)CC4)o3)c2[nH]1` [Example 278, 3-{5-[1-(4-chlorophenyl)cyclopropyl]-1,3,4-oxadiazol-2-yl}-7-(piperidin-4-yl)pyrazolo[1,5-a]pyrimidin-5(4H)-one hydrochloride] has an IC50 of 19 nM.
`O=c1cc(C2CCNCC2)n2ncc(-c3nnc(Cc4ccccc4)o3)c2[nH]1` [Example 180, 3-(5-benzyl-1,3,4-oxadiazol-2-yl)-7-(piperidin-4-yl)pyrazolo[1,5-a]pyrimidin-5(4H)-one hydrochloride] showed an IC50 of 35 nM.
Work on `Cc1ccc(-c2csc(-c3cnn4c(C5CCNCC5)cc(=O)[nH]c34)n2)c(C)c1` [Example 312, 3-[4-(2,4-dimethylphenyl)-1,3-thiazol-2-yl]-7-(piperidin-4-yl)pyrazolo[1,5-a]pyrimidin-5(4H)-one hydrochloride] yielded an IC50 of 22 nM.
